In US9546164B2 (GENENTECH, INC., priority 2013, dated 2017):

Biological target: hNav1.7 (Homo sapiens (Human), UniProt Q15858)
Assay: Tritiated sulfonamide competitive binding to membranes from cells expressing hNav1.7 and the β1 subunit;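 note: Filter-bound radioactivity counted by liquid scintillation, nonspecific binding defined with excess unlabelled ligand, IC50 fitted to percent inhibition of specific binding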
Conditions: not given

Sequence of hNav1.7 (Q15858 other isoform, or with tags, fused parts or gaps): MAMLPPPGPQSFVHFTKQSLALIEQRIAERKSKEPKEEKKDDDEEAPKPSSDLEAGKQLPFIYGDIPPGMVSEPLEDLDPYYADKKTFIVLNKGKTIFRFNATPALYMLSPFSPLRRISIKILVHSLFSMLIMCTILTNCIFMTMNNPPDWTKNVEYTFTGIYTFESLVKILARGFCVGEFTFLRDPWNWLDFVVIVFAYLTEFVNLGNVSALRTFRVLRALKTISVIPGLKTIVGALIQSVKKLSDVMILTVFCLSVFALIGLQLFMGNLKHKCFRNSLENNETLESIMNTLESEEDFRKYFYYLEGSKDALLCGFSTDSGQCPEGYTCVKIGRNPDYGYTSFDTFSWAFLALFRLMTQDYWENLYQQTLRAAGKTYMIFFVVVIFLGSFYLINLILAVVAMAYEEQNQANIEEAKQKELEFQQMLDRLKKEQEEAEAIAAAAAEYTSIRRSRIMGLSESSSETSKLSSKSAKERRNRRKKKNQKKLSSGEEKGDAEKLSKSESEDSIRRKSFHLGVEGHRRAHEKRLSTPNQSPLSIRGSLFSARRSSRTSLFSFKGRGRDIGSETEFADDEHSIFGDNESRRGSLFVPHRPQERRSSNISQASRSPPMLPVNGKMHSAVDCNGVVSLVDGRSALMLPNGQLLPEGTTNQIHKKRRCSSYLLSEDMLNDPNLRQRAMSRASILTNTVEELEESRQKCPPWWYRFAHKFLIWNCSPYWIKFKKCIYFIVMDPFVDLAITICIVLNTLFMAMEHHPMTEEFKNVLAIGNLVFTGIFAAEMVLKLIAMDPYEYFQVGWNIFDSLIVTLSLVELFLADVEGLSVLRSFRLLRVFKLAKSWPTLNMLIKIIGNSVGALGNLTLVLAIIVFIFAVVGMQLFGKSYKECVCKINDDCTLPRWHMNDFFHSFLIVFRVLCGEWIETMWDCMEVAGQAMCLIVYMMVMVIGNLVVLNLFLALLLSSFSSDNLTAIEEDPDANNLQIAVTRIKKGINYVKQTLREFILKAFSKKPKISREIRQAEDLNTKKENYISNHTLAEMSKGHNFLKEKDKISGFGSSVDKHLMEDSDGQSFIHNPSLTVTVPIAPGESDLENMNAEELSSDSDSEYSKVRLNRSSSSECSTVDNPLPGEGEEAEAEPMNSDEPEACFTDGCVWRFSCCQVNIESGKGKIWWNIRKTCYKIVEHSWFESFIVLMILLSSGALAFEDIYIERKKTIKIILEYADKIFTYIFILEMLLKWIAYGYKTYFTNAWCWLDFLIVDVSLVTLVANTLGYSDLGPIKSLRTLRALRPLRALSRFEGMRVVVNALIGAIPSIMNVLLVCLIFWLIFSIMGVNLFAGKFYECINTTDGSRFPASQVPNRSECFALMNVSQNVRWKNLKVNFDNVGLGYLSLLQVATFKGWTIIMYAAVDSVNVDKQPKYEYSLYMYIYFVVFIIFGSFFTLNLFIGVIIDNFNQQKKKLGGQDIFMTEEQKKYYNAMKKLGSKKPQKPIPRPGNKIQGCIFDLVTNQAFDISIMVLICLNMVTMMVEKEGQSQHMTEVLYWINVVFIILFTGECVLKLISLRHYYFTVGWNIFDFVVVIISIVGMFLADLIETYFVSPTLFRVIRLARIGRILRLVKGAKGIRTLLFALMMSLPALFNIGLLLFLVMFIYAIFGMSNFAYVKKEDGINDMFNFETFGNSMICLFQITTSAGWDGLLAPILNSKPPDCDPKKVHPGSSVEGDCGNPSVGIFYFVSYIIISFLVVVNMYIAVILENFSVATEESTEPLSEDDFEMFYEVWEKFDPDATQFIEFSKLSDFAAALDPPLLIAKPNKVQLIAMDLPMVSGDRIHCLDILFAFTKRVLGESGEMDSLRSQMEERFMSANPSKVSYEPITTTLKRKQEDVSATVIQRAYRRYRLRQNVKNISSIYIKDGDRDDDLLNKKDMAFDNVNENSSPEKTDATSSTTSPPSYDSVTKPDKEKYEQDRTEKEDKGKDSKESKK
Sequence of hNav1.7 (Q07699 19-218 partner): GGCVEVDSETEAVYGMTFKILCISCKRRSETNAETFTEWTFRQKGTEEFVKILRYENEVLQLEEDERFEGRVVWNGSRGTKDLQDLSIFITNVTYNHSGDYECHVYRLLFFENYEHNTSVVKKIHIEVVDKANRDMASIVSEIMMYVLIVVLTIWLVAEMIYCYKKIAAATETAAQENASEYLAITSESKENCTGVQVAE

IC50 [µM] | Compound
0.0411 | CS(=O)(=O)NC(=O)c1cc(C2CC2)c(OCC2CN([C@@H](c3ccccc3)c3ccc(C#N)cc3)C2)cc1F [Example 110, (S)-4-((1-((4-Cyanophenyl)(phenyl)methyl)azetidin-3-yl)methoxy)-5-cyclopropyl-2-fluoro-N-(methylsulfonyl)benzamide]
0.0204 | CS(=O)(=O)NC(=O)c1cc(C2CC2)c(OCC2CN([C@H](c3ccccc3)c3ccc(C#N)cc3)C2)cc1F [Example 111, (R)-4-((1-((4-Cyanophenyl)(phenyl)methyl)azetidin-3-yl)methoxy)-5-cyclopropyl-2-fluoro-N-(methylsulfonyl)benzamide]

Same assay, conditions: read-out: Ligand Binding Assay; 100 pM [3H]compound, membranes with hNav1.7 and β1 subunit, 18 h, room temperature

Compound | IC50 [µM]
CS(=O)(=O)NC(=O)c1cc(C2CC2)c(OCC2CCN(Cc3ccc(Cl)cc3)CC2)cc1F [Example 104, 4-((1-(4-Chlorobenzyl)piperidin-4-yl)methoxy)-5-cyclopropyl-2-fluoro-N-(methylsulfonyl)benzamide] | 0.0451
CS(=O)(=O)NC(=O)c1cc(C2CC2)c(OCC2CN([C@@H](c3ccccc3)c3cccc(C#N)c3)C2)cc1F [Example 108, (S)-4-((1-((3-Cyanophenyl)(phenyl)methyl)azetidin-3-yl)methoxy)-5-cyclopropyl-2-fluoro-N-(methylsulfonyl)benzamide] | 0.094
CS(=O)(=O)NC(=O)c1cc(C2CC2)c(OCC2CN([C@H](c3ccccc3)c3cccc(C#N)c3)C2)cc1F [Example 109, (R)-4-((1-((3-Cyanophenyl)(phenyl)methyl)azetidin-3-yl)methoxy)-5-cyclopropyl-2-fluoro-N-(methylsulfonyl)benzamide] | 0.0536
CS(=O)(=O)NC(=O)c1cc(C2CC2)c(OCC2CCN(CC(F)(F)F)CC2)cc1F [Example 116, 5-Cyclopropyl-2-fluoro-N-(methylsulfonyl)-4-((1-(2,2,2-trifluoroethyl)-piperidin-4-yl)methoxy)benzamide] | 0.0775
CS(=O)(=O)NC(=O)c1cc(C2CC2)c(OCC2CCN(CCC(F)(F)F)CC2)cc1F [Example 117, 5-Cyclopropyl-2-fluoro-N-(methylsulfonyl)-4-((1-(3,3,3-trifluoropropyl)piperidin-4-yl)methoxy)benzamide] | 0.411
CS(=O)(=O)NC(=O)c1cc(C2CC2)c(OCC2CN([C@@H](c3ccccc3)c3ccccn3)C2)cc1F [Example 118, (S)-5-Cyclopropyl-2-fluoro-N-(methylsulfonyl)-4-((1-(phenyl(pyridin-2-yl)methyl)azetidin-3-yl)methoxy)benzamide] | 0.417
C[C@H](c1cc(Cl)cc(Cl)c1)N1CC(COc2cc(F)c(C(=O)NS(C)(=O)=O)cc2C2CC2)C1 [Example 121, (R)-5-Cyclopropyl-4-((1-(1-(3,5-dichlorophenyl)ethyl)azetidin-3-yl)methoxy)-2-fluoro-N-(methylsulfonyl)benzamide] | 0.0301
CS(=O)(=O)NC(=O)c1cc(C2CC2)c(OCC2CN([C@@H](c3ccccc3)c3ccccc3F)C2)cc1F [Example 124, (S)-5-Cyclopropyl-2-fluoro-4-((1-((2-fluorophenyl)(phenyl)methyl)azetidin-3-yl)methoxy)-N-(methylsulfonyl)benzamide] | 0.0713
CS(=O)(=O)NC(=O)c1cc(C2CC2)c(OCC2CN([C@H](c3ccccc3)c3ccccc3F)C2)cc1F [Example 125, (R)-5-Cyclopropyl-2-fluoro-4-((1-((2-fluorophenyl)(phenyl)methyl)azetidin-3-yl)methoxy)-N-(methylsulfonyl)benzamide] | 0.025
CS(=O)(=O)NC(=O)c1cc(C2CC2)c(OCC2CCN(Cc3ccc(C(F)(F)F)cc3)CC2)cc1F [Example 126] | 0.282
CS(=O)(=O)NC(=O)c1cc(C2CC2)c(OCC2CCN(Cc3ccccc3F)CC2)cc1F [Example 127, 5-Cyclopropyl-2-fluoro-4-((1-(2-fluorobenzyl)piperidin-4-yl)methoxy)-N-(methylsulfonyl)benzamide] | 0.578
CS(=O)(=O)NC(=O)c1cc(C2CC2)c(OCC2CN(S(=O)(=O)c3ccccc3)C2)cc1F [Example 129, 5-Cyclopropyl-2-fluoro-N-(methylsulfonyl)-4-((1-(phenylsulfonyl)-azetidin-3-yl)methoxy)benzamide] | 1.37
CS(=O)(=O)NC(=O)c1cc(C2CC2)c(OCC2CN(Cc3ccc(Cl)c(F)c3)C2)cc1F [Example 133, 4-((1-(4-Chloro-3-fluorobenzyl)azetidin-3-yl)methoxy)-5-cyclopropyl-2-fluoro-N-(methylsulfonyl)benzamide] | 0.118
CS(=O)(=O)NC(=O)c1cc(C2CC2)c(OCC2CN(C(=O)c3cc(Cl)cc(Cl)c3)C2)cc1F [Example 134, 5-Cyclopropyl-4-((1-(3,5-dichlorobenzoyl)azetidin-3-yl)methoxy)-2-fluoro-N-(methylsulfonyl)benzamide] | 0.346

More lines, now with the values ahead:

IC50 [µM] | Compound
0.0163 | CS(=O)(=O)NC(=O)c1cc(C2CC2)c(OCC2CCN(Cc3ccc(F)cc3Cl)CC2)cc1F [Example 105, 4-((1-(2-Chloro-4-fluorobenzyl)piperidin-4-yl)methoxy)-5-cyclopropyl-2-fluoro-N-(methylsulfonyl)benzamide]
0.00335 | CS(=O)(=O)NC(=O)c1cc(C2CC2)c(OCC2CN([C@@H](c3ccccc3)c3ccc(OC(F)(F)F)cc3)C2)cc1F [Example 112, (S)-5-Cyclopropyl-2-fluoro-N-(methylsulfonyl)-4-((1-(phenyl(4-(trifluoromethoxy)phenyl)methyl)azetidin-3-yl)methoxy)benzamide]
0.0111 | CS(=O)(=O)NC(=O)c1cc(C2CC2)c(OCC2CN([C@H](c3ccccc3)c3ccc(OC(F)(F)F)cc3)C2)cc1F [Example 113, (R)-5-Cyclopropyl-2-fluoro-N-(methylsulfonyl)-4-((1-(phenyl(4-(trifluoromethoxy)phenyl)methyl)azetidin-3-yl)methoxy)benzamide]
0.00727 | CC(C)Oc1ncc([C@H](c2ccccc2)N2CC(COc3cc(F)c(C(=O)NS(C)(=O)=O)cc3C3CC3)C2)cc1Cl [Example 114, (S)-4-((1-((5-Chloro-6-isopropoxypyridin-3-yl)(phenyl)methyl)azetidin-3-yl)methoxy)-5-cyclopropyl-2-fluoro-N-(methylsulfonyl)benzamide]
0.0042 | CC(C)Oc1ncc([C@@H](c2ccccc2)N2CC(COc3cc(F)c(C(=O)NS(C)(=O)=O)cc3C3CC3)C2)cc1Cl [Example 115, (R)-4-((1-((5-Chloro-6-isopropoxypyridin-3-yl)(phenyl)methyl)azetidin-3-yl)methoxy)-5-cyclopropyl-2-fluoro-N-(methylsulfonyl)benzamide]
0.0206 | C[C@@H](c1cc(Cl)cc(Cl)c1)N1CC(COc2cc(F)c(C(=O)NS(C)(=O)=O)cc2C2CC2)C1 [Example 120, (S)-5-Cyclopropyl-4-((1-(1-(3,5-dichlorophenyl)ethyl)azetidin-3-yl)methoxy)-2-fluoro-N-(methylsulfonyl)benzamide]
0.0024 | CC1(COc2cc(F)c(C(=O)NS(C)(=O)=O)cc2C2CC2)CCN(Cc2cc(Cl)ccc2C(F)(F)F)CC1 [Example 122]
0.0029 | CC1(COc2cc(F)c(C(=O)NS(C)(=O)=O)cc2C2CC2)CCN(Cc2cc(Cl)cc(Cl)c2)CC1 [Example 123, 5-cyclopropyl-4-((1-(3,5-dichlorobenzyl)-4-methylpiperidin-4-yl)methoxy)-2-fluoro-N-(methylsulfonyl)benzamide]
0.0056 | CC(C)Oc1ncc(CN2CCC(COc3cc(F)c(C(=O)NS(C)(=O)=O)cc3C3CC3)CC2)cc1Cl [Example 128, 4-((1-((5-Chloro-6-isopropoxypyridin-3-yl)methyl)piperidin-4-yl)methoxy)-5-cyclopropyl-2-fluoro-N-(methylsulfonyl)benzamide]
0.0035 | CC1(COc2cc(F)c(C(=O)NS(C)(=O)=O)cc2C2CC2)CCN(Cc2ccc(F)cc2C(F)(F)F)CC1 [Example 130, 5-cyclopropyl-2-fluoro-4-((1-(4-fluoro-2-(trifluoromethyl)benzyl)-4-methylpiperidin-4-yl)methoxy)-N-(methylsulfonyl)benzamide]
0.00299 | CS(=O)(=O)NC(=O)c1cc(C2CC2)c(OCC2CN(C(c3ccccc3)c3ccc(C(F)(F)F)cc3)C2)cc1F (stereo not drawn) [Example 131, 5-Cyclopropyl-2-fluoro-N-(methylsulfonyl)-4-((1-(phenyl(4-(trifluoromethyl)phenyl)methyl)-azetidin-3-yl)methoxy)benzamide]
0.014 | CS(=O)(=O)NC(=O)c1cc(C2CC2)c(OCC2CN(Cc3cc(Cl)cc(Cl)c3)C2)cc1F [Example 132, 5-Cyclopropyl-4-((1-(3,5-dichlorobenzyl)azetidin-3-yl)methoxy)-2-fluoro-N-(methylsulfonyl)benzamide]
0.0155 | CS(=O)(=O)NC(=O)c1cc(C2CC2)c(OCC2CCN(Cc3ccc(OC(F)(F)F)cc3)CC2)cc1F [Example 135]
0.00188 | CS(=O)(=O)NC(=O)c1cc(C2CC2)c(OCC2CCN(Cc3cc(Cl)cc(OC(F)(F)F)c3)CC2)cc1F [Example 136, 4-((1-(3-Chloro-5-(trifluoromethoxy)benzyl)piperidin-4-yl)methoxy)-5-cyclopropyl-2-fluoro-N-(methylsulfonyl)benzamide]
0.00205 | CS(=O)(=O)NC(=O)c1cc(C2CC2)c(OCC2CCN(Cc3cc(Cl)cc(C(F)(F)F)c3)CC2)cc1F [Example 137, 4-((1-(3-Chloro-5-(trifluoromethyl)benzyl)piperidin-4-yl)methoxy)-5-cyclopropyl-2-fluoro-N-(methylsulfonyl)benzamide]
0.0112 | CS(=O)(=O)NC(=O)c1cc(C2CC2)c(OCC2CCN(Cc3ccc(Cl)c(F)c3)CC2)cc1F [Example 138, 4-((1-(4-Chloro-3-fluorobenzyl)piperidin-4-yl)methoxy)-5-cyclopropyl-2-fluoro-N-(methylsulfonyl)benzamide]
0.0049 | CS(=O)(=O)NC(=O)c1cc(C2CC2)c(OCC2CCN(Cc3cc(Cl)cc(Cl)c3)CC2)cc1F [Example 139, 5-Cyclopropyl-4-((1-(3,5-dichlorobenzyl)piperidin-4-yl)methoxy)-2-fluoro-N-(methylsulfonyl)benzamide]
